Results reported in ChEMBL document CHEMBL5331054, “Antibacterial quaternary ammonium agents: Chemical diversity and biological mechanism” (Eur J Med Chem, 2022).
Blank lines part the entries; values can stand above or below the compound they belong to.

Key:
Staphylococcus aureus [1] = assay: Antibacterial activity against Staphylococcus aureus ATCC 700699 assessed as reduction in bacterial cell growth incubated for 24 hrs by microtiter plate reader assay; assay type: functional
Staphylococcus aureus [2] = assay: Antibacterial activity against methicillin resistant Staphylococcus aureus assessed as reduction in bacterial cell growth incubated for 18 to 24 hrs by microbroth dilution assay; assay type: functional; conditions: time 18-24 hrs
Enterococcus faecalis [3] = assay: Antibacterial activity against vancomycin-resistant Enterococcus faecalis assessed as inhibition of bacterial growth incubated for 16 hrs by CLSI based broth microdilution method; assay type: functional
Enterococcus faecalis [4] = assay: Antibacterial activity against Enterococcus faecalis ATCC 29212 assessed as inhibition of bacterial growth incubated for 16 hrs by CLSI based broth microdilution method; assay type: functional
Staphylococcus aureus [5] = assay: Antibacterial activity against Staphylococcus aureus ATCC 29213 assessed as inhibition of bacterial growth incubated for 16 hrs by CLSI based broth microdilution method; assay type: functional
Escherichia coli [6] = assay: Antibacterial activity against Escherichia coli ATCC 11229 assessed as reduction in bacterial cell growth incubated for 24 hrs by microtiter plate reader assay; assay type: functional
Pseudomonas aeruginosa [7] = assay: Antibacterial activity against Pseudomonas aeruginosa ATCC 27853 assessed as inhibition of bacterial growth incubated for 16 hrs by CLSI based broth microdilution method; assay type: functional
Bacillus subtilis = assay: Antibacterial activity against Bacillus subtilis ATCC 6633 assessed as reduction in bacterial cell growth incubated for 24 hrs by microtiter plate reader assay; assay type: functional
Salmonella enterica = assay: Antibacterial activity against Salmonella enterica ATCC 14028 assessed as reduction in bacterial cell growth incubated for 24 hrs by microtiter plate reader assay; assay type: functional
Enterococcus faecalis [8] = assay: Antibacterial activity against Enterococcus faecalis assessed as bacterial growth inhibition incubated for 72 hrs by microdilution method; assay type: functional
Pseudomonas aeruginosa [9] = assay: Antibacterial activity against Pseudomonas aeruginosa assessed as bacterial growth inhibition incubated for 72 hrs by microdilution method; assay type: functional; conditions: Pseudomonas aeruginosa, 72 h, read-out: MIC
Staphylococcus aureus [10] = assay: Antibacterial activity against Staphylococcus aureus assessed as bacterial growth inhibition incubated for 72 hrs by microdilution assay; assay type: functional, organism-based; conditions: Staphylococcus aureus; time 72 hrs
Staphylococcus aureus [11] = assay: Antibiofilm activity against Staphylococcus aureus ATCC 33591 assessed as reduction in biofilm activity; assay type: functional
Escherichia coli [12] = assay: Antibacterial activity against Escherichia coli assessed as bacterial growth inhibition incubated for 72 hrs by microdilution method; assay type: functional; conditions: Escherichia coli, 72 h, read-out: MIC
Escherichia coli [13] = assay: Antibacterial activity against Escherichia coli assessed as reduction in bacterial cell growth; assay type: functional
Klebsiella pneumoniae = assay: Antibacterial activity against Klebsiella pneumoniae ATCC 700603 assessed as inhibition of bacterial cell growth
Staphylococcus aureus [14] = assay: Antibacterial activity against methicillin-resistant Staphylococcus aureus assessed as bacterial growth inhibition; assay type: functional
Enterococcus faecalis [15] = assay: Antibacterial activity against Enterococcus faecalis ATCC 29212 assessed as inhibition of bacterial growth incubated for 16 to 18 hrs by broth microdilution method; assay type: functional; conditions: time 16-18 hrs
Pseudomonas aeruginosa [16] = assay: Antibacterial activity against Pseudomonas aeruginosa ATCC 27853 assessed as inhibition of bacterial growth incubated for 16 to 18 hrs by broth microdilution method; assay type: functional; conditions: time 16-18 hrs
Staphylococcus aureus [17] = assay: Antibacterial activity against Staphylococcus aureus; assay type: functional
Escherichia coli [18] = assay: Antibacterial activity against Escherichia coli ATCC 25922 assessed as inhibition of bacterial growth incubated for 16 to 18 hrs by broth microdilution method; assay type: functional; conditions: time 16-18 hrs
Staphylococcus aureus [19] = assay: Antibacterial activity against methicillin-resistant Staphylococcus aureus assessed as bacterial growth inhibition measured after 16 to 18 hrs by broth microdilution method; assay type: functional; conditions: time 16-18 hrs
Staphylococcus aureus [20] = assay: Antimicrobial activity against community acquired methicillin-resistant Staphylococcus aureus assessed as reduction in bacterial cell growth; assay type: functional
Enterococcus faecalis [21] = assay: Antimicrobial activity against Enterococcus faecalis; assay type: functional
Escherichia coli [22] = assay: Antimicrobial activity against Escherichia coli at 50 uM; assay type: functional
Pseudomonas aeruginosa [23] = assay: Antibacterial activity against Pseudomonas aeruginosa assessed as reduction in bacterial cell growth; assay type: functional
Staphylococcus aureus [24] = assay: Antibacterial activity against methicillin-sensitive Staphylococcus aureus assessed as reduction in microbial growth; assay type: functional
Staphylococcus aureus [25] = assay: Antibacterial activity against methicillin-resistant Staphylococcus aureus […] assessed as reduction in bacterial cell growth; assay type: functional
Pseudomonas aeruginosa [26] = assay: Antibacterial activity against Pseudomonas aeruginosa ATCC 10145 by broth microdilution method; assay type: functional
Staphylococcus aureus [27] = assay: Antibacterial activity against methicillin-resistant Staphylococcus aureus assessed as bacterial cell growth inhibition incubated for 18 hrs by microbroth dilution method; assay type: functional

MIC (Staphylococcus aureus [1]): 0.5 µg/mL
SMILES: CCCCCCCCCCCCCCCCCC[N+](C)(C)Cc1cnc(C)c(O)c1C.Cl.[Cl-]

SMILES: CC(C)(C)n1cc[n+](CCCCCCCCCCCC[n+]2ccn(C(C)(C)C)c2)c1.[Br-].[Br-]
MIC (Staphylococcus aureus [2]): 0.5 µg/mL
MIC (Enterococcus faecalis [3]): 0.5 µg/mL
MIC (Enterococcus faecalis [4]): 0.5 µg/mL
MIC (Staphylococcus aureus [5]): 0.25 µg/mL
MIC (Escherichia coli [6]): 0.5 µg/mL
MIC (Pseudomonas aeruginosa [7]): 4 µg/mL

MIC (Bacillus subtilis): 0.8 µg/mL
MIC (Escherichia coli [6]): 0.8 µg/mL
MIC (Salmonella enterica): 1.6 µg/mL
SMILES: CCCCCCCCCCCCCCCCCCNC(=O)CC[C@@H](C)[C@H]1CC[C@H]2[C@@H]3[C@H](OC(=O)C[n+]4ccccc4)C[C@@H]4C[C@H](OC(=O)C[n+]5ccccc5)CC[C@]4(C)[C@H]3C[C@H](O)[C@]12C.[Cl-].[Cl-]

MIC (Enterococcus faecalis [8]): < 0.25 µM
MIC (Pseudomonas aeruginosa [9]): 4 µM
MIC (Staphylococcus aureus [10]): 1 µM
MIC (Escherichia coli [12]): < 0.25 µM
SMILES: CCCCCCCCCCCCC[N+](C)(C)CCCN(C)CCC[N+](C)(C)CCCCCCCCCCCC.[Br-].[Br-]
MBEC (Staphylococcus aureus [11]): 50 µM

SMILES: CCCCCCCCC[n+]1cccc(Oc2ccc(-c3ccc(Oc4ccc[n+](CCCCCCCCC)c4)cc3)cc2)c1.[I-].[I-]
MIC (Escherichia coli [13]): 0.5 µg/mL
MIC (Klebsiella pneumoniae): 8 µg/mL
MIC (Staphylococcus aureus [14]): < 0.25 µg/mL

SMILES: CCCCCCCCCCCC[N+]12CC[N+](CCCCCCCCCCCC)(CC1)CC2
MIC (Enterococcus faecalis [15]): 4 µM
MIC (Pseudomonas aeruginosa [16]): 8 µM
MIC (Staphylococcus aureus [17]): 0.25 µM
MIC (Escherichia coli [18]): 2 µM
MIC (Staphylococcus aureus [19]): 0.5 µM

SMILES: CCCCCCCCCCC[n+]1ccc(CCCc2cc[n+](CCCCCCCCCCC)cc2)cc1
MIC (Staphylococcus aureus [20]): 0.25 µM
MIC (Staphylococcus aureus [14]): 0.25 µM
MIC (Enterococcus faecalis [21]): 0.5 µM
MIC (Staphylococcus aureus [10]): 0.25 µM
MIC (Escherichia coli [22]): 0.5 µM

MIC (Pseudomonas aeruginosa [23]): 4 µM
MIC (Staphylococcus aureus [24]): 1 µM
SMILES: CCCCCCCCCCC[n+]1ccc(CCc2cc[n+](CCCCCCCCCCC)cc2)cc1

SMILES: CCCCCCCCCCCC[n+]1cccc(C[N+](C)(C)CCCCCCCCCCCC)c1
MIC (Staphylococcus aureus [25]): 1 µM

SMILES: CCCCCCCC[n+]1ccc(SCCCCCCSc2cc[n+](CCCCCCCC)cc2)cc1.[Br-].[Br-]
MIC (Pseudomonas aeruginosa [26]): 8 µg/mL
MIC (Staphylococcus aureus [27]): 8 µg/mL
